Assays:
PC-3 Cells [1] = assay: Cellular polyamine and oligoamine levels, PC-3 cells (HPLC); type: cell-based
Experimental: Cellular Uptake of Oligoamines. There was considerable uptake of oligoamines by the cancer cell lines; see Table 3A (DuPro cells) and Table 3B (PC-3 cells). […] While not wishing to be limited by any particular theory of operation, the cytotoxicity is likely related to their strong aggregation effect on DNA.
Polyamine Analysis. An appropriate number of cells were taken from harvested samples and centrifuged at 1000 rpm at 4° C. for 5 min. The cells were washed twice with chilled Dulbecco's isotonic phosphate buffer (pH 7.4) by centrifugation at 1000 rpm at 4° C. and resuspended in the same buffer. After the final centrifugation, the supernatant was decanted, and […] of 8% sulfosalycilic acid was added to the cell pellet. The cells were sonicated, and the mixture was kept at 4° C. for at least 1 h. After centrifugation at 8000 g for 5 min, the supernatant was removed for analysis. An appropriate volume (50-100 μl) was fluorescence-labeled by derivatizing with dansyl chloride. Labeled polyamines were loaded onto a C-18 high-performance liquid chromatography column and separated by gradient elution with acetonitrile/water at 50° C. Peaks were detected and quantitated using Shimadzu HPLC fluorescence monitor coupled with a Spectra-Physics peak integrator. Because polyamine levels vary with environmental conditions, control cultures were sampled for each experiment.

PC-3 Cells [2] = assay: Colony forming assay (CFE), PC-3 cells; type: cell-based; conditions: ca. 1.5-2 μM, 5 days incubation, FIG. 2
Experimental: Assessment of Oligoamine Cytotoxicity by Colony Forming Assay. The cytotoxicity of the oligoamines was further assayed by the colony forming assay (CFE). Four saturated oligoamines were chosen for their ability to kill DuPro cells after 5 days of incubation. Oligoamines SL-11159, SL-11175 and SL-11226 had over 4 logs of cell kill on day 5 of treatment at 1-2 μM concentrations; see FIG. 1. […] The colony forming assay was performed as follows.
Colony Forming Efficiency Assay. All cell lines used in this assay have already been optimized with respect to the number of feeder cells and length of incubation time for observable colony formation. Cells were washed, harvested, and replated in quadruplicate at appropriate dilution into 60 mm plastic Petri dishes. The Petri dishes were prepared not more than 24 hr in advance with 4 ml of supplemented Eagle's minimum essential medium containing 5-10% fetal bovine serum (standardized for each cell line) for all cell lines. Cells were incubated for the previously standardized number of days in a 95% air/5% CO2 atmosphere. The plates were stained with 0.125% crystal violet in methanol and counted. Results are expressed as the surviving fraction of an appropriate control.

[3] = Solubility in water for injection; type: physicochemical; conditions: dosing solution, 6.25 mg/kg in 0.1 mL/10 g body weight
Experimental: Response of implanted sc DU-145 prostate tumors to treatment with SL-11159 and SL-11226. This experiment evaluates the antitumor efficacy of SLIL Biomedical Corporation compounds (SL-11159, SL-11226) against subcutaneously-implanted DU-145 human prostate tumor xenografts in male NCr-nu (line 3A10F17T1) mice. All compounds were tested at a single dose level when administered intravenously (iv), at 6.25 mg/kg. Both SL-11159 and SL-11226 were prepared in water for injection (soluble); the injection volume was 0.1 mL/10 g body weight.

PC-3 = assay: MTT assay, tumor cell growth, PC-3; type: cell-based; conditions: 6 days incubation, read-out: ID50 (μM) values for Human Tumor Cell Lines, PC-3
Experimental: (§1) Effect of Saturated Oligoamines on Human Prostate Tumor Cell Growth by the MTT assay. Saturated oligoamines inhibited prostate cancer cell growth in vitro. DU-145 cells were most sensitive and PC-3 cells were less sensitive to the effects of oligoamines. In general, ID50 values of less than 0.5 μM were obtained (Table 2). Even though the PC-3 cells were relatively more resistant to the oligoamines, at a 5 μM concentration the oligoamines reduced the cell number to less than 1% of the control on day 6 of incubation. Tissue cultures and the MTT assay were performed as follows.
(§2) Tissue Culture. Cells were seeded into 75 cm^2 culture flasks with 15 ml of Eagle's minimal essential medium supplemented with 10% fetal calf serum and nonessential amino acids. The flasks were incubated in a humidified 95% air/5% CO2 atmosphere. The cells were grown for at least 24 h to ensure that they are in the log phase of growth and then they were treated with the oligoamines. Cells were harvested by treatment for 5 min with STV (saline A, 0.05% trypsin, 0.02% EDTA) at 37° C. The flasks were rapped on the lab bench, pipetted several times and aliquots of cell suspension were withdrawn and counted using a Coulter particle counter that has been standardized for counting each cell line using a hemacytometer.
(§3) MTT Assay: Trypsinized cell suspensions were diluted to seed 80 μl suspensions containing 500 cells in each well of a 96 well Corning microtiter plate and incubated overnight at 37° C. in a humidified incubator in 5% CO2. 20 μl of appropriately diluted stock solution of each drug were added to the middle 8 columns of cell suspension in the microtiter plates. Each drug concentration was run in quadruplicate. Outer columns of the plates were used for buffer controls. Cells were incubated with the drug for 6 days at 37° C. in 5% CO2/H2O atmosphere. 25 μl of 5 mg/ml solution of 3-(4,5-dimethylthiazol-2-yl)-2,5-diphenyl tetrazolium bromide (MTT) were added to each well and incubated for 4 hours at 37° C. in 5% CO2/H2O incubator. Cells were lysed by incubating overnight with 100 μl lysis buffer (500 ml of the lysis buffer contains: 100 g lauryl sulfate (SDS), 250 ml of N,N-dimethylformamide, and 2 ml of glacial acetic acid, made up to volume with water; pH 4.8).
(§4) The color was monitored at room temperature at 570 nm in a E-max Precision Microplate Reader (Molecular Devices Corporation, Sunnyvale, Calif.) and data was analyzed using cell survival software supplied by Molecular Devices Corporation.

LnCap = assay: MTT assay, tumor cell growth, LnCap; type: cell-based; conditions: 6 days incubation, read-out: ID50 (μM) values for Human Tumor Cell Lines, LnCap
Experimental: as §1, §2, §3, §4

[4] = PC-3, Day 4 of Treatment, analog conc. 1 μM
[5] = PC-3, Day 4 of Treatment, analog conc. 5 μM
[6] = PC-3, Day 6 of Treatment, analog conc. 1 μM

SMILES	Polyamine levels, Analog (cellular oligoamine level) (PC-3 Cells [1]; [4])	Polyamine levels, Put (PC-3 Cells [1]; [4])	Polyamine levels, Spd (PC-3 Cells [1]; [4])	Polyamine levels, Spm (PC-3 Cells [1]; [4])	Polyamine levels, Analog (cellular oligoamine level) (PC-3 Cells [1]; [5])	Polyamine levels, Put (PC-3 Cells [1]; [5])	Polyamine levels, Spm (PC-3 Cells [1]; [5])	Polyamine levels, Analog (cellular oligoamine level) (PC-3 Cells [1]; [6])	Polyamine levels, Put (PC-3 Cells [1]; [6])	logs of cells killed (colony survival) (PC-3 Cells [2])	solubility in water for injection [3]	IC50 (PC-3)	IC50 (LnCap)	Polyamine levels, Spd (PC-3 Cells [1]; [5])
CCNCCCCNCCCCNCCCCNCCCCNCCCCNCCCCNCCCCNCCCCNCCCCNCC.Cl.Cl.Cl.Cl.Cl.Cl.Cl.Cl.Cl.Cl [SL-11159]	0.513 nmoles/10^6 cells	0.525 nmoles/10^6 cells	0.531 nmoles/10^6 cells	0.300 nmoles/10^6 cells	0.388 nmoles/10^6 cells	0.670 nmoles/10^6 cells	0.240 nmoles/10^6 cells	1.026 nmoles/10^6 cells	0.640 nmoles/10^6 cells	four	soluble	0.6 µM	0.25 µM	–
CCNCCCCNCCCCNCCCCNCCCCNCCCCNCCCCNCCCCNCCCCNCCCCNCCCCNCCCCNCC.Cl.Cl.Cl.Cl.Cl.Cl.Cl.Cl.Cl.Cl.Cl.Cl [SL-11226]	0.021 nmoles/10^6 cells	0.573 nmoles/10^6 cells	–	–	0.026 nmoles/10^6 cells	0.985 nmoles/10^6 cells	–	–	–	–	soluble	0.14 µM	0.15 µM	0.071 nmoles/10^6 cells

— patent US7491849B2, “Oligoamine compounds and derivatives thereof for cancer therapy” (priority 2001, dated 2009)
